Results on one substance are retold here after article PMC5743680, “Bleogens: Cactus-Derived Anti-Candida Cysteine-Rich Peptides with Three Different Precursor Arrangements” (Frontiers in Plant Science, 2017).

The nature of this assay: Heparin affinity chromatography. The class given is binding. As to conditions: TSKgel Heparin-5PW column, 10 mM phosphate buffer, pH 7.2. The method, then: Heparin binding chromatography was performed by high performance liquid chromatography (HPLC; Shimadzu, Japan). A linear gradient of mobile phase A (10 mM phosphate buffer, pH 7.2) and mobile phase B (0.75 M NaCl in 10 mM phosphate buffer, pH 7.2) was used with a TSKgel Heparin-5PW column ([…], 10 μm; Tosoh Bioscience, Japan).

For the substance SIGGIR, the “binding to heparin HPLC affinity column” value is listed as “did not bind”.
